From ChEMBL document CHEMBL1201862, “PubChem BioAssay data set” (2004)
Activity calls are given as the source filed them.

Key:
[1] = molecular target: T1, Protein skinhead-1 (Caenorhabditis elegans, UniProt P34707); format: functional
T1 sequence (P34707 whole entry): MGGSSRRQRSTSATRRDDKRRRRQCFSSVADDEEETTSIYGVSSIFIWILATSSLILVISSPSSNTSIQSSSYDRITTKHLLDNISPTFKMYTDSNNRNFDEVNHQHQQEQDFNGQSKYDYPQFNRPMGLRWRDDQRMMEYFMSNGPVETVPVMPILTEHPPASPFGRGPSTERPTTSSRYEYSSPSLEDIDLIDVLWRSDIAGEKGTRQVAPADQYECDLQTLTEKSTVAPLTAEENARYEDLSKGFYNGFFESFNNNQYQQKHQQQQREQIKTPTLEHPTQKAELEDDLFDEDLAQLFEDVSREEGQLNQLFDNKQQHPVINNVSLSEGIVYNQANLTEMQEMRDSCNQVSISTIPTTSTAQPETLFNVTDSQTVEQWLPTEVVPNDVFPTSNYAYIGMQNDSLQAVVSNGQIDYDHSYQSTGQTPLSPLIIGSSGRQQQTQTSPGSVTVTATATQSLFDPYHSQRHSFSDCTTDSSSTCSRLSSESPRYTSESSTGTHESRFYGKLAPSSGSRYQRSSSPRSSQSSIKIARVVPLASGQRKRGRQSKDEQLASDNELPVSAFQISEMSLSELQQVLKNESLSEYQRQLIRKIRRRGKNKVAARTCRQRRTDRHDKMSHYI

[2] = molecular target: T2, Estrogen receptor (Homo sapiens, UniProt P03372);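 also: potency for inhibiting coactivator peptide recruitment to the receptor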
T2 sequence (P03372 whole entry): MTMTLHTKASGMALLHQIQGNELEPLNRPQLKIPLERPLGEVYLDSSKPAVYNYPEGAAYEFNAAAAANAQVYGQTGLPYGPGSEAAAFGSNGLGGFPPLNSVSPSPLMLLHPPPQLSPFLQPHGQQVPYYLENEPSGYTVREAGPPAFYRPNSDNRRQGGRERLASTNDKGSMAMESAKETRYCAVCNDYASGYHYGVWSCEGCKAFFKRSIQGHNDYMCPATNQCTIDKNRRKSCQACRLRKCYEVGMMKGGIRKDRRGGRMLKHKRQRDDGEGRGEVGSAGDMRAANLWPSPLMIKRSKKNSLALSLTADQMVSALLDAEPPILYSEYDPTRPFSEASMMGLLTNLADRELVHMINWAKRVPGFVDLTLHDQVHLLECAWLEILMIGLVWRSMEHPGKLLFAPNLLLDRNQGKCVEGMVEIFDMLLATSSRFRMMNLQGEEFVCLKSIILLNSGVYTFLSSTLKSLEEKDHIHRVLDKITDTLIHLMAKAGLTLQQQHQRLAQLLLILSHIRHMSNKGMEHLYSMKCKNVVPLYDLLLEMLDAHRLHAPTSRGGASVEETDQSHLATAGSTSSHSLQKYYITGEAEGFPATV

[3] = molecular target: Fructose-bisphosphate aldolase (Mycobacterium tuberculosis, UniProt P9WQA3); assay: Fluorescence-based biochemical high throughput dose response assay for inhibitors of the fructose-bisphosphate aldolase (FBA) of M. tuberculosis.; format: functional
Chain of Fructose-bisphosphate aldolase (P9WQA3 whole entry): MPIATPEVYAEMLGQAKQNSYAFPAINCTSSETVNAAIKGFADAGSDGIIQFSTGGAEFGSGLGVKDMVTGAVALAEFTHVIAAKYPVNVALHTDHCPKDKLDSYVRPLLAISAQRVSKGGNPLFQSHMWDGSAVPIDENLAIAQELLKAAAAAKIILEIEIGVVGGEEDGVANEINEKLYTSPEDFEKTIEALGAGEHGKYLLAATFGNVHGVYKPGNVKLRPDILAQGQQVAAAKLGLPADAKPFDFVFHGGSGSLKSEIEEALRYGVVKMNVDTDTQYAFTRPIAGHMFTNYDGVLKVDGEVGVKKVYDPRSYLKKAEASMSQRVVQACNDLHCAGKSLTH

[4] = molecular target: Aryl hydrocarbon receptor (Homo sapiens, UniProt P35869); assay: Luminescence-based cell-based high throughput dose response assay for activators of the Aryl Hydrocarbon Receptor (AHR). [Related pubchem assays: 2796 (Primary screen (AHR activators in singlicate)), 2845 (Confirmation screen (AHR activators in triplicate)), 434939 (Counterscreen (PXR activators in triplicate)), 2804 (Summary (AHR activators))]; format: ADME
Chain of Aryl hydrocarbon receptor (P35869 whole entry): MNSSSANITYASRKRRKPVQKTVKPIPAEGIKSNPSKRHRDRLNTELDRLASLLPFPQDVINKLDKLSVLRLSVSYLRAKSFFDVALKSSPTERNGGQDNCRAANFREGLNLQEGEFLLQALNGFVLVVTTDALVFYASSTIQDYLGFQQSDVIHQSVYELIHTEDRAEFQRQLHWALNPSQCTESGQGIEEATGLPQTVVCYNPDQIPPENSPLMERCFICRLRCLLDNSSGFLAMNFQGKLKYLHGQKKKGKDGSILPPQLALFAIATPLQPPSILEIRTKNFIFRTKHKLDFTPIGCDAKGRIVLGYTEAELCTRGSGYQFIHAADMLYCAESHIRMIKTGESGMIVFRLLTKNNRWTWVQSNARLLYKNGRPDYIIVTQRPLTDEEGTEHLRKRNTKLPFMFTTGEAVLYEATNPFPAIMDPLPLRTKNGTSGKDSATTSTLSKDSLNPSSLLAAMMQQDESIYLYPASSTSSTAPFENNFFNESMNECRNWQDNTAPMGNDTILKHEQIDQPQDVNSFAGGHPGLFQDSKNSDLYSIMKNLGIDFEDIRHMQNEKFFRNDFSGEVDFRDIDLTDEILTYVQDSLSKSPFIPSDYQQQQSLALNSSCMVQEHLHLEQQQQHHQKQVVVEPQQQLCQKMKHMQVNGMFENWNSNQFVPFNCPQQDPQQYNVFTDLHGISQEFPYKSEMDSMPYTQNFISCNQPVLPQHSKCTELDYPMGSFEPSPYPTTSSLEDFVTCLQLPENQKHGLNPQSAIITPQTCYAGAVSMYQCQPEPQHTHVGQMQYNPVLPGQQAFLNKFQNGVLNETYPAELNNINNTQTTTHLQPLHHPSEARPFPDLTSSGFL

[5] = A cytotoxicity screen of small molecule inhibitors of the PhoP region in Salmonella typhi identified in the primary screen. [Related pubchem assays: 1850, 1864, 1985 ]; format: functional
[6] = molecular target: NADPH oxidase 1 (Homo sapiens, UniProt Q9Y5S8); format: functional, cell-based;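 also: Cell-based assay with luminescence read-out, IC50 derived from inhibitor dose-response curves; intracellular ROS from endogenous NOX1 in intact HT29 colon cancer cells; potency of inhibitors that lower the ROS luminescence signal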
Chain of NADPH oxidase 1 (Q9Y5S8 whole entry): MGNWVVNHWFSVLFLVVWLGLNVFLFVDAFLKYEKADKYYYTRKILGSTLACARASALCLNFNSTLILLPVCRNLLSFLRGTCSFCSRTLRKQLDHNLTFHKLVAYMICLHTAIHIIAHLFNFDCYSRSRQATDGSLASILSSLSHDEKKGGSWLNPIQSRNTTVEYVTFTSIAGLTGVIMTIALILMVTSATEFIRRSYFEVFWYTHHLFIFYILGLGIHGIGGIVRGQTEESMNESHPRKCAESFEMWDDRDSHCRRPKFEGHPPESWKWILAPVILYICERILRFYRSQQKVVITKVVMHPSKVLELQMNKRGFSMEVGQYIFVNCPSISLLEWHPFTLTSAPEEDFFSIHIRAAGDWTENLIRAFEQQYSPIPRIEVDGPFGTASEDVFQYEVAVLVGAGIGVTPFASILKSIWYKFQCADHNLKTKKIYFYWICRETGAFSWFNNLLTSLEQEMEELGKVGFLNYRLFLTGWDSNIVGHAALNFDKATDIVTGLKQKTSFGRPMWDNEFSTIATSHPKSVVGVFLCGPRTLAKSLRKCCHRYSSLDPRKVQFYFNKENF

[7] = A High Throughput Confirmatory Assay used to Identify Novel Compounds that Inhibit Mycobacterium Tuberculosis in the absence of Glycerol.; format: functional
[8] = molecular target: Serine/threonine-protein phosphatase (Homo sapiens, UniProt Q9BPW0); assay: inhibition of protein phosphatase 5 activity – biochemical, fluorescence, dose response (AID 2395)
Chain of Serine/threonine-protein phosphatase (Q9BPW0 whole entry): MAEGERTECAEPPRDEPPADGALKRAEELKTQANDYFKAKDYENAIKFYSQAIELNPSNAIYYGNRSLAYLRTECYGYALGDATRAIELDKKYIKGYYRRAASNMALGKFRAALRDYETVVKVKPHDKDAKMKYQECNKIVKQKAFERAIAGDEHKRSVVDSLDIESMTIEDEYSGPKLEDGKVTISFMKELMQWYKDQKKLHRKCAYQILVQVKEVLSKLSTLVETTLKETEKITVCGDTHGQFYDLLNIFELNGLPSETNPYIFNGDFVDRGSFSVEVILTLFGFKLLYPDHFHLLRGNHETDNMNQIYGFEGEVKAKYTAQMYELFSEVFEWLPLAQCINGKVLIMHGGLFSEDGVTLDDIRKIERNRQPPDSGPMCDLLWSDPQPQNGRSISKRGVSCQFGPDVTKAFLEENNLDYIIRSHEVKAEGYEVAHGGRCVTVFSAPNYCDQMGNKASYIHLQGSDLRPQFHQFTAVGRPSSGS

[9] = molecular target: Serine/threonine-protein phosphatase PP1-alpha catalytic subunit (Homo sapiens, UniProt P62136); assay: inhibition of protein phosphatase 1 activity – biochemical, fluorescence, dose response (AID 2394)
Chain of Serine/threonine-protein phosphatase PP1-alpha catalytic subunit (P62136 whole entry): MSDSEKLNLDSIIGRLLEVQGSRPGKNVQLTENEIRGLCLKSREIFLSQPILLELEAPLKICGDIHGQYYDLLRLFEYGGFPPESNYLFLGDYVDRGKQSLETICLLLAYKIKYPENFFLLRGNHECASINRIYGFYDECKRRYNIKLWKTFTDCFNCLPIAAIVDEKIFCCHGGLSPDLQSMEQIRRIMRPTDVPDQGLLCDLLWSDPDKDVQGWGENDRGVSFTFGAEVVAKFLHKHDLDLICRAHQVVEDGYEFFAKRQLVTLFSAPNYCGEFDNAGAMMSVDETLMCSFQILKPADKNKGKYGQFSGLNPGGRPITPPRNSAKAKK

[10] = HPDE-C7 pancreatic duct cell viability loss – fluorescence, HTS (AID 430); format: functional, cell-based; details: Homo sapiens
[11] = viability loss of HPDE-C7K cells – cell-based, fluorescence, HTS, primary screen (AID 431); format: functional; details: Homo sapiens

In the case of `N#Cc1c(N)oc(-c2ccc3c(c2)OCO3)c1-c1ccc2c(c1)OCO2`, the IC50 [1] is reported as > 100 µM (inactive) and the IC50 [2] is reported as > 50 µM (not active).

In the case of `O=C(Nc1ccon1)c1cnc2sccn2c1=O`, the IC50 [3] is reported as 4.61 µM (active) and the EC50 [4] is reported as 1.85 µM (active).

In the case of `COc1ccc(N2CCN(c3cc(C)c4ccc(O)cc4n3)CC2)cc1`, the EC50 [4] is reported as 3.47 µM (active) and the EC50 [5] is reported as > 50 µM (active).

In the case of `Cc1ccc(S(=O)(=O)c2ccc3c(c2)Sc2ccc(Cl)cc2N3)cc1`, the IC50 [6] is reported as 5.25 µM (active).

For `COCCOC(=O)c1ccc(NC(=O)COc2ccc([N+](=O)[O-])cc2)cc1`, the IC50 [7] was > 100 µM (active).

In the case of `COC(=O)CCC(=O)OC1(C)C(=O)C=C2C=C(C3CC3)N(C3CCCC3)C=C2C1=O` (centres undefined), the IC50 [8] is reported as 11 µM (not active) and the IC50 [9] is reported as > 67 µM (not active).

For `O=S(=O)(CC(CN1CCCC1)N1CCCC1)c1ccc2ccccc2c1` (centres undefined), the EC50 [10] was 2.04 µM (active) and the EC50 [11] was 2.38 µM (active).

With `COc1ccc(-n2nnc3c(SCC(=O)Nc4ccc5c(c4)OCCO5)ncnc32)cc1` the EC50 [10] was 7.96 µM (active) and the EC50 [11] was 8.32 µM (active).
